Measurements: PubChem BioAssay AID228 (DTP/NCI, 2004)
Where “and” joins values, the source holds several entries; their conditions need not be identical. Identical values can stand only once. Results filed as inconclusive are left out.

System: BDF1 mice, Friend leukemia sc, tumor weight T/C
Experiment: NCI In Vivo Anticancer Drug Screen. Data for tumor model Friend Virus Leukemia (Solid) (subcutaneous) in B6D2F1 (BDF1) mice
Settings: endpoint: mean tumor weight, higher = larger tumour
Description: The antitumor activity of compounds was measured in mice bearing transplantable tumors. Survival or tumor size were measured and the results are expressed as the measurement made in the treated group (T) divided by the measurement made in the vehicle treated control group (C). The tumor model used in this assay is Friend Virus Leukemia (Solid) (subcutaneous) in B6D2F1 (BDF1) mice

[1] = dose: 1.0 mg/kg/injection, schedule: Q01DX011 (ip), vehicle: carboxymethylcellulose (CMC)
[2] = dose: 250.0 mg/kg/injection, schedule: Q01DX011 (ip), vehicle: saline
[3] = dose: 3.0 mg/kg/injection, schedule: Q01DX011 (ip), vehicle: carboxymethylcellulose (CMC)
[4] = dose: 6.0 mg/kg/injection, schedule: Q01DX011 (ip), vehicle: carboxymethylcellulose (CMC)
[5] = dose: 25.0 mg/kg/injection, schedule: Q01DX011 (ip), vehicle: carboxymethylcellulose (CMC)
[6] = dose: 50.0 mg/kg/injection, schedule: Q01DX011 (ip), vehicle: carboxymethylcellulose (CMC)
[7] = dose: 62.5 mg/kg/injection, schedule: Q01DX011 (ip), vehicle: carboxymethylcellulose (CMC)
[8] = dose: 125.0 mg/kg/injection, schedule: Q01DX011 (ip), vehicle: carboxymethylcellulose (CMC)
[9] = dose: 60.0 mg/kg/injection, schedule: Q01DX011 (ip), vehicle: carboxymethylcellulose (CMC)
[10] = dose: 15.0 mg/kg/injection, schedule: Q01DX011 (ip), vehicle: carboxymethylcellulose (CMC)
[11] = dose: 30.0 mg/kg/injection, schedule: Q01DX011 (ip), vehicle: carboxymethylcellulose (CMC)
[12] = dose: 250.0 mg/kg/injection, schedule: Q01DX011 (ip), vehicle: carboxymethylcellulose (CMC)
[13] = dose: 500.0 mg/kg/injection, schedule: Q01DX011 (ip), vehicle: carboxymethylcellulose (CMC)

For `NC(Cc1c[nH]c2ccc(N(CCCl)CCCl)cc12)C(=O)O` (stereo unspecified), the T/C (dose: 0.75 mg/kg/injection, schedule: Q01DX011 (ip), vehicle: saline) was 37 % of control, the T/C [1] was 120 % of control and the T/C (dose: 1.5 mg/kg/injection, schedule: Q01DX011 (ip), vehicle: saline) was 47 % of control. For the same compound, the T/C (dose: 2.5 micrograms/kg/injection, schedule: Q01DX011 (ip), vehicle: carboxymethylcellulose (CMC)) was 71 % of control, the T/C (dose: 5.0 micrograms/kg/injection, schedule: Q01DX011 (ip), vehicle: carboxymethylcellulose (CMC)) was 61 % of control and the T/C (dose: 11.0 micrograms/kg/injection, schedule: Q01DX011 (ip), vehicle: carboxymethylcellulose (CMC)) was 86 % of control. The T/C (dose: 22.0 micrograms/kg/injection, schedule: Q01DX011 (ip), vehicle: carboxymethylcellulose (CMC)) was 90 % of control, the T/C (dose: 45.0 micrograms/kg/injection, schedule: Q01DX011 (ip), vehicle: carboxymethylcellulose (CMC)) was 52 % of control and the T/C (dose: 90.0 micrograms/kg/injection, schedule: Q01DX011 (ip), vehicle: carboxymethylcellulose (CMC)) was 34 % of control. For the same compound, the T/C (dose: 180.0 micrograms/kg/injection, schedule: Q01DX011 (ip), vehicle: carboxymethylcellulose (CMC)) was 40 % of control and the T/C (dose: 370.0 micrograms/kg/injection, schedule: Q01DX011 (ip), vehicle: carboxymethylcellulose (CMC)) was 39 % of control.
For `CC(=O)N(C)C`, the T/C [2] was 113 % of control.
With `ClCCn1cnc2c(SCc3ccccc3Cl)ncnc21` the T/C [3] was 72 % of control, the T/C [4] was 81 % of control and the T/C (dose: 12.0 mg/kg/injection, schedule: Q01DX011 (ip), vehicle: carboxymethylcellulose (CMC)) was 77 % of control. For the same compound, the T/C [5] was 36 % of control, the T/C [6] was 43 % of control and the T/C (dose: 100.0 mg/kg/injection, schedule: Q01DX011 (ip), vehicle: carboxymethylcellulose (CMC)) was 43 % of control. The T/C (dose: 200.0 mg/kg/injection, schedule: Q01DX011 (ip), vehicle: carboxymethylcellulose (CMC)) was 10 % of control and 25 % of control and the T/C (dose: 400.0 mg/kg/injection, schedule: Q01DX011 (ip), vehicle: carboxymethylcellulose (CMC)) was 16 % of control.
With `O=C(O)CC(O)(CC(=O)O)C(=O)O.[Ga]` the T/C [5] was 108 % of control and the T/C [6] was 104 % of control.
With `CC(Cl)CN(Cc1cc(O)c(CN(CC(C)Cl)CC(C)Cl)cc1O)CC(C)Cl` (stereo unspecified) the T/C [7] was 66 % of control and the T/C [8] was 44 % of control.
In the case of `NNC(=O)c1nsnc1NC(N)=O`, the T/C (dose: 43.0 mg/kg/injection, schedule: Q01DX011 (ip), vehicle: carboxymethylcellulose (CMC)) is reported as 53 % of control and the T/C [9] is reported as 46 % of control.
For `O=C1N(Cl)C(=O)C(c2ccc(Cl)cc2)(c2ccc(Cl)cc2)N1Cl`, the T/C [10] was 56 % of control, the T/C [11] was 42 % of control and the T/C [9] was 33 % of control. The T/C (dose: 120.0 mg/kg/injection, schedule: Q01DX011 (ip), vehicle: carboxymethylcellulose (CMC)) was 47 % of control.
`CC(C)CCS(=O)(=O)OCCCCOS(=O)(=O)CCC(C)C` was tested, and the T/C [7] was 98 % of control, the T/C [8] was 97 % of control and the T/C [12] was 73 % of control. The T/C [13] was 39 % of control.
With `CCCCSc1ncnc2nc[nH]c12` the T/C (dose: 16.0 mg/kg/injection, schedule: Q01DX011 (ip), vehicle: saline) was 101 % of control, the T/C (dose: 31.0 mg/kg/injection, schedule: Q01DX011 (ip), vehicle: saline) was 121 % of control and the T/C (dose: 62.0 mg/kg/injection, schedule: Q01DX011 (ip), vehicle: saline) was 99 % of control. For the same compound, the T/C (dose: 125.0 mg/kg/injection, schedule: Q01DX011 (ip), vehicle: saline) was 62 % of control.
With `NC(=O)c1ccc(NC(=O)CCC(=O)Nc2ccc(C(N)=O)cn2)nc1` the T/C (dose: 0.5 mg/kg/injection, schedule: Q01DX011 (ip), vehicle: saline) was 106 % of control, the T/C (dose: 1.0 mg/kg/injection, schedule: Q01DX011 (ip), vehicle: saline) was 117 % of control and the T/C (dose: 2.0 mg/kg/injection, schedule: Q01DX011 (ip), vehicle: saline) was 106 % of control. The T/C (dose: 4.0 mg/kg/injection, schedule: Q01DX011 (ip), vehicle: saline) was 57 % of control.
In the case of `C=CCNc1ccc(C)cc1`, the T/C (dose: 22.0 mg/kg/injection, schedule: Q01DX011 (ip), vehicle: carboxymethylcellulose (CMC)) is reported as 60 % of control, the T/C (dose: 45.0 mg/kg/injection, schedule: Q01DX011 (ip), vehicle: carboxymethylcellulose (CMC)) is reported as 58 % of control and the T/C (dose: 90.0 mg/kg/injection, schedule: Q01DX011 (ip), vehicle: carboxymethylcellulose (CMC)) is reported as 35 % of control.
For `CCCn1cnc2c(=S)nc(N)[nH]c21`, the T/C (dose: 0.67 mg/kg/injection, schedule: Q01DX011 (ip), vehicle: carboxymethylcellulose (CMC)) was 67 % of control, the T/C [1] was 67 % of control and the T/C (dose: 1.5 mg/kg/injection, schedule: Q01DX011 (ip), vehicle: carboxymethylcellulose (CMC)) was 28 % of control. The T/C (dose: 2.9 mg/kg/injection, schedule: Q01DX011 (ip), vehicle: carboxymethylcellulose (CMC)) was 32 % of control and the T/C (dose: 4.4 mg/kg/injection, schedule: Q01DX011 (ip), vehicle: carboxymethylcellulose (CMC)) was 32 % of control.
In the case of `COc1ccc(Nc2ccnc3cc(Cl)ccc23)cc1CN(CCCl)CCCl`, the T/C [1] is reported as 81 % of control, the T/C (dose: 2.0 mg/kg/injection, schedule: Q01DX011 (ip), vehicle: carboxymethylcellulose (CMC)) is reported as 76 % of control and the T/C (dose: 4.0 mg/kg/injection, schedule: Q01DX011 (ip), vehicle: carboxymethylcellulose (CMC)) is reported as 42 % of control.
In the case of `NC(=O)NO`, the T/C (dose: 16.0 mg/kg/injection, schedule: Q01DX011 (ip), vehicle: carboxymethylcellulose (CMC)) is reported as 91 % of control, the T/C (dose: 32.0 mg/kg/injection, schedule: Q01DX011 (ip), vehicle: carboxymethylcellulose (CMC)) is reported as 50 % of control and the T/C (dose: 32.0 mg/kg/injection, schedule: Q01DX011 (ip), vehicle: saline) is reported as 108 % of control. The T/C (dose: 64.0 mg/kg/injection, schedule: Q01DX011 (ip), vehicle: carboxymethylcellulose (CMC)) was 8 % of control, the T/C (dose: 64.0 mg/kg/injection, schedule: Q01DX011 (ip), vehicle: saline) was 7 % of control and the T/C (dose: 96.0 mg/kg/injection, schedule: Q01DX011 (ip), vehicle: saline) was 3 % of control. For the same compound, the T/C (dose: 128.0 mg/kg/injection, schedule: Q01DX011 (ip), vehicle: carboxymethylcellulose (CMC)) was 4 % of control and the T/C (dose: 128.0 mg/kg/injection, schedule: Q01DX011 (ip), vehicle: saline) was 4 % of control.
`O=C(NO)c1ccncc1` was tested, and the T/C [2] was 79 % of control, the T/C (dose: 500.0 mg/kg/injection, schedule: Q01DX011 (ip), vehicle: saline) was 78 % of control and 86 % of control and the T/C (dose: 750.0 mg/kg/injection, schedule: Q01DX011 (ip), vehicle: saline) was 42 % of control and 48 % of control. The T/C (dose: 950.0 mg/kg/injection, schedule: Q01DX011 (ip), vehicle: saline) was 7 % of control.
For `CC(=O)[C@H]1CC[C@H]2[C@@H]3C[C@H](C)C4=CC(=O)CC[C@]4(C)[C@@]3(F)[C@@H](O)C[C@]12C`, the T/C (dose: 6.0 mg/kg/injection, schedule: Q01DX011 (sc), vehicle: steriod suspending solution) was 163 % of control, the T/C (dose: 8.0 mg/kg/injection, schedule: Q01DX011 (sc), vehicle: steriod suspending solution) was 162 % of control and the T/C (dose: 12.0 mg/kg/injection, schedule: Q01DX011 (sc), vehicle: steriod suspending solution) was 151 % of control. The T/C (dose: 16.0 mg/kg/injection, schedule: Q01DX011 (sc), vehicle: steriod suspending solution) was 80 % of control, the T/C (dose: 50.0 mg/kg/injection, schedule: Q01DX011 (sc), vehicle: steriod suspending solution) was 66 % of control and 43 % of control and the T/C (dose: 100.0 mg/kg/injection, schedule: Q01DX011 (sc), vehicle: steriod suspending solution) was 22 % of control and 47 % of control. The T/C (dose: 200.0 mg/kg/injection, schedule: Q01DX011 (sc), vehicle: steriod suspending solution) was 46 % of control.
In the case of `CC1CCC2(C(=O)O)CCC3(C)C(=CCC4C5(C)CCC(O)C(C)(C)C5CCC43C)C2C1C` (stereo unspecified), the T/C (dose: 50.0 mg/kg/injection, schedule: Q01DX011 (ip), vehicle: other) is reported as 76 % of control, the T/C (dose: 100.0 mg/kg/injection, schedule: Q01DX011 (ip), vehicle: other) is reported as 69 % of control and the T/C (dose: 200.0 mg/kg/injection, schedule: Q01DX011 (ip), vehicle: other) is reported as 115 % of control.
For `O=C1C=CC(=Nc2ccc(O)c3ncccc23)c2cccnc21`, the T/C [4] was 71 % of control and the T/C (dose: 12.5 mg/kg/injection, schedule: Q01DX011 (ip), vehicle: carboxymethylcellulose (CMC)) was 84 % of control.
`CCCCSc1nc(N)nc2c1ncn2CC(C)CC` (stereo unspecified) was tested, and the T/C [8] was 68 % of control, the T/C [12] was 75 % of control and the T/C [13] was 23 % of control.
For `O=C1C(=O)C(Cl)=C(Cl)C(Cl)=C1Cl`, the T/C [10] was 108 % of control, the T/C [11] was 90 % of control and the T/C [9] was 89 % of control.
With `Cc1c2ccc3ccccc3c2c[n+]2ccccc12` the T/C [3] was 97 % of control, the T/C [4] was 105 % of control and the T/C (dose: 24.0 mg/kg/injection, schedule: Q01DX011 (ip), vehicle: carboxymethylcellulose (CMC)) was 61 % of control and 37 % of control.
